A word on the IC50: it is the concentration needed to halve the response being measured. Read a high IC50 as lower potency.

The record followed here is ChEMBL document CHEMBL1138689, “Synthesis of 5a-carba-hexopyranoses and hexopyranosylamines, as well as 5a,5a'-dicarbadisaccharides, from 3,8-dioxatricyclo[4.2.1.0(2,4)]nonan-9-ol: glycosidase inhibitory activity of N-substituted 5a-carba-beta-gluco- and beta-galactopyranosylamines, and derivatives thereof” (Bioorg Med Chem Lett, 2004).

Assay [1] can be described thus: Compound was tested for the inhibition of alpha-Glucosidase of Bakers yeast; NI denotes no inhibition. Details: species or system Saccharomyces cerevisiae; call rule not given here.
For assay [2], the target named is T1, Beta-galactosidase (Bos taurus, UniProt Q58D55).
T1 sequence (Q58D55 whole entry): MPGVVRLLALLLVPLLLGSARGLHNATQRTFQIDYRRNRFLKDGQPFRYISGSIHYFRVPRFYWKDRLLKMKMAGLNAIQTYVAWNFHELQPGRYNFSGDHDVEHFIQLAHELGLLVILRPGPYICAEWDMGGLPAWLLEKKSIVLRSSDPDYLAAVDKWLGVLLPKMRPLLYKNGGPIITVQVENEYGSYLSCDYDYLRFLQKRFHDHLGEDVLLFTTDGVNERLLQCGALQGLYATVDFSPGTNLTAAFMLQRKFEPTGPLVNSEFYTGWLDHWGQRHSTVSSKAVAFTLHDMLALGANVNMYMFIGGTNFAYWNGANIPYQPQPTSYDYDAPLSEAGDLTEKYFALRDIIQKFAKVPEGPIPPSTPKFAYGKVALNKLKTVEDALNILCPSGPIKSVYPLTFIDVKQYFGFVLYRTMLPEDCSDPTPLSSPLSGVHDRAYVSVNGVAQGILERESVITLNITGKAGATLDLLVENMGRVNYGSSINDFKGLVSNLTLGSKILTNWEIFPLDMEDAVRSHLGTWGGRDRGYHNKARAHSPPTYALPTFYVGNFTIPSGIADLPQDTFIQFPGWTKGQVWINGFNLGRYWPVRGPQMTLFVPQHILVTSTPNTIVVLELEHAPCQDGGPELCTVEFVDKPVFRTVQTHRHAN
Kind of assay: Inhibition of Beta-galactosidase of bovine liver; […].

Assay [3] has as its target T2, Tissue alpha-L-fucosidase (Bos taurus, UniProt Q2KIM0).
T2 sequence (Q2KIM0 whole entry): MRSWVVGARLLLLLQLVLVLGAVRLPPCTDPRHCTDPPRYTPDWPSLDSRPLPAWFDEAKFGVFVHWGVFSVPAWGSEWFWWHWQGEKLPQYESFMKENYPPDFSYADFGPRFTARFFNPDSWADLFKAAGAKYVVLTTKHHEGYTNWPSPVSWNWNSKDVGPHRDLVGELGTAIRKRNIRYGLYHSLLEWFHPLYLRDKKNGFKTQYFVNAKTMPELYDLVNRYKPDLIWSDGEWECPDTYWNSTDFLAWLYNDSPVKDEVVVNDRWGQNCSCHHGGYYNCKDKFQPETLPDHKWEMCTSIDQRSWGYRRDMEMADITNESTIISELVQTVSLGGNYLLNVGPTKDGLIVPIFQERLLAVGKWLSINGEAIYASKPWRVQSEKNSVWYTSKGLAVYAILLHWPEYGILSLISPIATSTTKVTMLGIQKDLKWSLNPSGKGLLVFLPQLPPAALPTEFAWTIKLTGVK
Kind of assay: Inhibition of Alpha-fucosidase of bovine kidney; NI=no inhibition.

The nature of assay [4]: Inhibition of Alpha-galactosidase of green coffee beans; NI=no inhibition.
Assay [5] is described as follows: Inhibition of Alpha-Glucosidase of Bakers yeast; NI=no inhibition. On the set-up: species or system Saccharomyces cerevisiae.
The nature of assay [6]: Inhibition of Alpha-galactosidase of green coffee beans; […].
The nature of assay [7]: Inhibition of Alpha-galactosidase of green coffee beans.

As to `OC1[C@H]2CO[C@H]1[C@@H](O)[C@H](NCCc1ccccc1)C2` (single isomer, unassigned), the IC50 entry in assay [1] is listed as “Not Active”; in assay [2], “No inhibition”; in assay [3], “Not Active”; in assay [4] it was “Not Active”.
Turning to `CCCCCCCCCCN[C@@H]1C[C@@H]2CO[C@H](C2O)[C@H]1O` (single isomer, unassigned), the IC50 entry in assay [2] is listed as “No inhibition”; in assay [3], “Not Active”; in assay [4], “Not Active”; in assay [5], “Not Active”.
For `CCCCCCCCCCCCN[C@@H]1C[C@@H]2CO[C@H](C2O)[C@H]1O` (single isomer, unassigned), the IC50 entry in assay [2] is “No inhibition”; in assay [3], “Not Active”; in assay [4], “Not Active”; in assay [5] it was “Not Active”.
With `CCCCN[C@@H]1C[C@@H]2CO[C@H](C2O)[C@H]1O` (single isomer, unassigned), the concentration for half-maximal inhibition (IC50) result is “No inhibition” in assay [2], “Not Active” in assay [3], “Not Active” in assay [4] and “Not Active” in assay [5].
In assay [6], `CCCCCCCCNC1CC(CO)C(O)C(O)C1O` (centres undefined) showed an IC50 greater than 1000 µM.
Regarding `CCCCCCN[C@@H]1C[C@@H]2CO[C@H](C2O)[C@H]1O` (single isomer, unassigned), the IC50 result in assay [2] is recorded as “No inhibition”; in assay [3], “Not Active”; in assay [4], “Not Active”; in assay [5], “Not Active”.
`CC(=O)NC1CC(CO)C(O)C(O)C1O` (centres undefined): the IC50 in assay [6] is greater than 1000 µM.
On to `CCCCCCCCN[C@@H]1C[C@@H]2CO[C@H](C2O)[C@H]1O` (single isomer, unassigned), for which the IC50 entry in assay [2] is on record as “No inhibition”; in assay [3], “Not Active”; in assay [4], “Not Active”; in assay [5] it was “Not Active”.
`C=C1CC(NCCCCCCCC)C(O)C(O)C1O` (centres undefined): the IC50 in assay [6] is greater than 1000 µM.
As for `N[C@H]1C[C@H](CO)[C@@H](O)[C@H](O)[C@H]1O`, the IC50 in assay [7] came to 2.8 µM. That is a single-digit micromolar value.
Still for that read-out and setting: to `CO[C@@H]1CC2COC(C1O)[C@H]2NC1CC(CO)C(O)C(O)C1O` (some centres undefined) belongs 1.2 µM.
With `CCCCCCCCNC1CC(C)C(O)C(O)C1O` (centres undefined), the IC50 in assay [6] was greater than 1000 µM.
As for `OC1[C@H]2CO[C@H]1[C@@H](O)[C@H](NCc1ccccc1)C2` (single isomer, unassigned), the concentration for half-maximal inhibition (IC50) result is “No inhibition” in assay [2], “Not Active” in assay [3], “Not Active” in assay [4] and “Not Active” in assay [5].
